Results published in US20080069809A1, “Compositions and methods for the diagnosis and treatment of cancer” (priority 2006, published 2008).

Key:
[1] = system: EGFP-positive PKC-δ-expressing KG1a cells; assay: Apoptosis / viability in KG1a cells transfected with EGFP-PKC-δ; assay type: cell-based
Procedure: (§1) KG1a cells were transiently transfected with EGFP-tagged mouse PKC-δ subcloned into pEGFP-N1 plasmid (available from National Cancer Institute [NCI], Bethesda, Md.) using an Amaxa nucleofection apparatus (Amaxa, Koeln, Germany). Transfection efficiency was approximately 35% as judged by fluorescence-activated cell sorter (FACS) analysis and cells were treated with PEP005 (0.2 μM-20 μM) 24 hours after transfection. Cell viability in EGFP-positive cells was assessed by analysis of cell morphology (forward scatter and side scatter profile) by FACS and loss of viability confirmed in the total cell culture by MTT assay after 3 days. Briefly, 24 hours after transfection, 2×10^4 cells were plated in five wells in 96-well plates and exposed to […] PEP005. At 72 hours, 20 μL MTT substrate at 5 mg/mL was added and plates were incubated at 37° C. After 3 hours, 150 μL media was removed and replated with 200 μL dimethyl sulfoxide (DMSO). Absorbance at an optical density (OD) of 550 nm was read on a Biotech plate reader (Amersham Pharmacia) and corrected for absorbance obtained from blank media controls.

[2] = system: U937; details: sub-G1 DNA by FACS, treated 5 days
Procedure: (§2) The myeloid leukemic cell lines HL60, NB60, NB4, U937, K562 and KG1a were all grown in RPMI 1640 medium (Life Technologies, Paisley, United Kingdom) supplemented with 10% v/v fetal calf serum (Sear Laboratories International Crawley, United Kingdom), 100 U/mL penicillin, and 100 μg/mL streptomycin (Sigma Aldrich, Poole, United Kingdom) at 37° C. and 5% v/v CO2. AML blasts were isolated from patient bone marrow aspirates and peripheral blood of eight patients at diagnosis or relapse. Patients were not receiving AML therapy at time of sampling. Blasts were isolated by Ficoll density centrifugation and were cultured in serum-free insulin transferrin selenium-positive (ITS+) medium (Life Technologies) containing 300 ng/mL stem cell factor (SCF) and 10 ng/mL interleukin 3 (IL3; R and D Systems, Abingdon, United Kingdom) and antibiotics. […] Normal myeloblasts were isolated from cord blood or adult mobilized peripheral blood. Briefly, CD34^+ cells were indirectly selected from the mononuclear cell preparations using antibody-coated magnetic beads (Miltenyi Biotec, United Kingdom).
(§3) To determine the effects of ingenol-3-angelate (PEP005), cells were incubated for up to 5 days with medium alone or PEP005 at a range of concentrations from 0.2 nM to 20 μM. […] Apoptosis and differentiation were assessed after 1 to 5 days.

[3] = system: K562; details: less sensitive, treated 5 days
Procedure: as §2, §3

[4] = system: U937; assay: Differentiation (CD11b expression) in U937 cells; assay type: cell-based
Procedure: The myeloid leukemic cell lines HL60, NB60, NB4, U937, K562 and KG1a were all grown in RPMI 1640 medium (Life Technologies, Paisley, United Kingdom) supplemented with 10% v/v fetal calf serum (Sear Laboratories International Crawley, United Kingdom), 100 U/mL penicillin, and 100 μg/mL streptomycin (Sigma Aldrich, Poole, United Kingdom) at 37° C. and 5% v/v CO2. AML blasts were isolated from patient bone marrow aspirates and peripheral blood of eight patients at diagnosis or relapse. Patients were not receiving AML therapy at time of sampling. Blasts were isolated by Ficoll density centrifugation and were cultured in serum-free insulin transferrin selenium-positive (ITS+) medium (Life Technologies) containing 300 ng/mL stem cell factor (SCF) and 10 ng/mL interleukin 3 (IL3; R and D Systems, Abingdon, United Kingdom) and antibiotics. Blast purity ranged from 80% to 95%, as assessed by expression of CD34. Normal myeloblasts were isolated from cord blood or adult mobilized peripheral blood. Briefly, CD34^+ cells were indirectly selected from the mononuclear cell preparations using antibody-coated magnetic beads (Miltenyi Biotec, United Kingdom).
Cell differentiation was determined by staining of cells with anti-CD11b antibody as a general early marker of myeloid differentiation. In studies with HL60 cells, PEP005-treated and 20 nM phorbol myristate (PMA)-treated (Sigma Aldrich) cells were also assessed for their ability to phagocytose complement-coated yeast, a marker of a fully differentiated myeloid cell, as previously described (Toksoz et al, Leukemia Res 6:491-498, 1982). The ingestion of three or more yeasts was taken as a positive result. In normal cord blood or adult bone marrow myeloblasts, loss of CD34 was taken as a marker of differentiation. Isotype-matched controls were used and all antibodies were from DAKO (Cambridge, United Kingdom). […] Images were captured with a SPOT2 cameria (Diagnostic Instructions, Sterling Heights, Mich.) and analyzed using Image-Pro 4.0 software (Media Cybernetics, Silver Spring, Md.).

[5] = system: Normal CD34+ myeloblasts; assay: Apoptosis / cytotoxicity in normal CD34+ myeloblasts; assay type: cell-based, human
Procedure: The myeloid leukemic cell lines HL60, NB60, NB4, U937, K562 and KG1a were all grown in RPMI 1640 medium (Life Technologies, Paisley, United Kingdom) supplemented with 10% v/v fetal calf serum (Sear Laboratories International Crawley, United Kingdom), 100 U/mL penicillin, and 100 μg/mL streptomycin (Sigma Aldrich, Poole, United Kingdom) at 37° C. and 5% v/v CO2. AML blasts were isolated from patient bone marrow aspirates and peripheral blood of eight patients at diagnosis or relapse. Patients were not receiving AML therapy at time of sampling. […] Blast purity ranged from 80% to 95%, as assessed by expression of CD34. […]
as §3
Cell differentiation was determined by staining of cells with anti-CD11b antibody as a general early marker of myeloid differentiation. In studies with HL60 cells, PEP005-treated and 20 nM phorbol myristate (PMA)-treated (Sigma Aldrich) cells were also assessed for their ability to phagocytose complement-coated yeast, a marker of a fully differentiated myeloid cell, as previously described (Toksoz et al, Leukemia Res 6:491-498, 1982). […]

[6] = system: EGFP-positive KG1a cells transfected with control vector; assay: Apoptosis in KG1a cells transfected with control vector pEGFP; assay type: cell-based; details: even at 20 μM PEP005, 3 days
Procedure: as §1

[7] = molecular target: EGFP-tagged mouse PKC-δ (Mus musculus, UniProt P28867); details: KG1a
Procedure: KG1a cells were transfected with PKC-δ-EGFP or pEGFP-N1 (vector control). At 24 hours after transfection, cells were treated with 0, 0.2, 2 and 20 μM PEP005 and cytospins prepared after 15 minutes. Slides were fixed with 2% v/v paraformaldehyde in PBS for 20 minutes, rinsed briefly in PBS and mounted in Vectashield containing DAPI (4.6 diamidino-2-phenylindole; Vector Laboratories, Burlingame, Calif.). Slides were examined using a Leica Fluorescence microscope (Leica, Heidelberg, Germany) fitted with ×60 oil immersion objective. Images were captured using a Hamanatsu C4742-95 camera (Grafter Imaging, Austin, Tex.) and analyzed using OpenLab 3.1 software (Improvision, Coventry, United Kingdom).

EGFP-tagged mouse PKC-δ, sequence (P28867 whole entry): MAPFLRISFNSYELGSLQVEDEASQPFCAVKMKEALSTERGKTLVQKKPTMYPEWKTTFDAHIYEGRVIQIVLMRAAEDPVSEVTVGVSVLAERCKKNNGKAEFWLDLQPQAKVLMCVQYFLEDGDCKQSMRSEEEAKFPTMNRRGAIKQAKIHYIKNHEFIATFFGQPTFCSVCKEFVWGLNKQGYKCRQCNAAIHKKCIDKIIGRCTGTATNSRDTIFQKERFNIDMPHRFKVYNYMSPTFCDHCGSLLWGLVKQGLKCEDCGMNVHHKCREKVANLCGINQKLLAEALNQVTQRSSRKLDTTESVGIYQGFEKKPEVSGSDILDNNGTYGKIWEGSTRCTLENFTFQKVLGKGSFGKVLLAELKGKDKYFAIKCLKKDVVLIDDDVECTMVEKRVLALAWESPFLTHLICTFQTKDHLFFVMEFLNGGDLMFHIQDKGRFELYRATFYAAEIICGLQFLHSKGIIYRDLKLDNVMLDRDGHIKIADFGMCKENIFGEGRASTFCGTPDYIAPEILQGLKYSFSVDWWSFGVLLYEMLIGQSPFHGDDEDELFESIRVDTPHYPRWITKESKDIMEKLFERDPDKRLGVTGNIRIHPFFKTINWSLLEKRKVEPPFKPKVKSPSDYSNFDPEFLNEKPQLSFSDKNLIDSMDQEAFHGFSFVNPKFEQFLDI

## C/C=C(/C)C(=O)O[C@H]1C(C)=C[C@]23C(=O)[C@@H](C=C(CO)[C@@H](O)[C@]12O)[C@H]1[C@@H](C[C@H]3C)C1(C)C [PEP005, ingenol-3-angelate]
[1]; PEP005, after 3 days
  viability of total cell population by MTT assay: Loss of viability was confirmed
[1]; PEP005 for 3 days, 24 hours after transfection, doses commensurate with those in HL60, U937 and NB4
  apoptosis (forward and side scatter by FACS): resulted in apoptosis
[2]
  PEP005 concentration with optimal effect, apoptosis: 20 nM
[3]
  PEP005 concentration with maximal response, apoptosis: 2 µM
[4]
  predominant response (kinetic study): expressed CD11b as the predominant response before entering apoptosis
[4]; 10 nM ATRA and 20 nM PEP005 in combination, 5 days
  synergy with ATRA in CD11b differentiation response: able to synergize with ATRA
[4]; treated 5 days
  PEP005 concentration with optimal effect, CD11b expression: 20 nM
[5]; concentrations of PEP005 effective against cell lines and AML blast cells, cord blood and adult marrow myeloblasts
  induction of apoptosis: Induction of apoptosis was not seen
[5]; even at 200 nM PEP005
  cytotoxicity: cytotoxicity did not occur
[6]
  apoptosis (forward and side scatter by FACS): resistant to PEP005-induced apoptosis
[7]; 200 nM PEP005
  time to translocation of EGFP-tagged PKC-δ to the nuclear region: ≤ 5 min
[7]; from cytosol after PEP005 treatment
  translocation of EGFP-PKC-δ: induced its translocation to the nucleus and perinuclear region
